± gives the standard deviation of the averaged measurements.
Tests used:
Test in all cases: level (log10 ratio to DMSO vehicle control); higher = higher biomarker level / cell amount than vehicle control
[1] = compound: CN(C(=O)C(F)(F)C(F)(F)C(F)(F)F)[Si](C)(C)C [N-Methyl-N-trimethylsilylheptafluorobutyramide] (in DMSO)
Protocol: (§1)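 BioMAP Diversity Plus panel of 12 human primary cell co-culture systems (3C, 4H, LPS, SAg, BT, BF4T, BE3C, CASM3C, HDF3CGF, KF3CT, MyoF, Mphg). Compounds were added 1 h before stimulation and left for 24 h (MyoF 48 h; BT 72 h for soluble read-outs or 6 d for IgG). Biomarkers were read by ELISA, cytotoxicity by SRB, PBMC viability and proliferation by Alamar Blue. Each well value was divided by the mean of 8 DMSO control wells on the same plate and log10 transformed; duplicate blinded samples were tested at 4 concentrations.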

[2] = compound: CO[Si](C)(CCC(F)(F)C(F)(F)C(F)(F)C(F)(F)C(F)(F)C(F)(F)F)OC [Dimethoxymethyl((perfluorohexyl)ethyl)silane] (in DMSO)
Protocol: as §1

Octafluoroadipic acid = compound: O=C(O)C(F)(F)C(F)(F)C(F)(F)C(F)(F)C(=O)O [Octafluoroadipic acid] (in DMSO)
Protocol: as §1

Perfluoroundecanoic acid = compound: O=C(O)C(F)(F)C(F)(F)C(F)(F)C(F)(F)C(F)(F)C(F)(F)C(F)(F)C(F)(F)C(F)(F)C(F)(F)F [Perfluoroundecanoic acid] (in DMSO); details: 6700 nM
Protocol: as §1

Perfluorononanoic acid = compound: O=C(O)C(F)(F)C(F)(F)C(F)(F)C(F)(F)C(F)(F)C(F)(F)C(F)(F)C(F)(F)F [Perfluorononanoic acid] (in DMSO)
Protocol: as §1

[3] = compound: O=C(O)C(F)(OC(F)(F)C(F)(F)C(F)(F)F)C(F)(F)F [Ammonium perfluoro-2-methyl-3-oxahexanoate] (in Water)
Protocol: as §1

[4] = compound: OCC(F)(F)OC(F)(F)C(F)(F)OC(F)(F)C(F)(F)OC(F)(F)CO [1H,1H,11H,11H-Perfluorotetraethylene glycol] (in DMSO)
Protocol: as §1

[5] = compound: OCCC(F)(F)C(F)(F)C(F)(F)C(F)(F)F [4:2 Fluorotelomer alcohol] (in DMSO)
Protocol: as §1

| Test System | level (log10) ([1]; 6700 nM) | level (log10) ([1]; 20000 nM) | level (log10) ([1]; 60000 nM) | level (log10) ([2]; 6700 nM) | level (log10) ([2]; 20000 nM) | level (log10) (Octafluoroadipic acid; 6700 nM) | level (log10) (Octafluoroadipic acid; 20000 nM) | level (log10) (Octafluoroadipic acid; 60000 nM) | level (log10) (Perfluoroundecanoic acid) | level (log10) (Perfluorononanoic acid; 6700 nM) | level (log10) (Perfluorononanoic acid; 20000 nM) | level (log10) ([3]; 6700 nM) | level (log10) ([3]; 20000 nM) | level (log10) ([3]; 60000 nM) | level (log10) ([4]; 6700 nM) | level (log10) ([4]; 20000 nM) | level (log10) ([4]; 60000 nM) | level (log10) ([5]; 6700 nM) | level (log10) ([5]; 20000 nM) | level (log10) ([5]; 60000 nM) |
| --- | --- | --- | --- | --- | --- | --- | --- | --- | --- | --- | --- | --- | --- | --- | --- | --- | --- | --- | --- | --- |
| CASM3C:Serum Amyloid A | -0.018 ± 0.0099 | -0.0275 ± 0.025 | 0.013 ± 0.082 | -0.015 ± 0.0014 | 0.014 ± 0.041 | -0.032 ± 0.037 | -0.0515 ± 0.011 | 0.0105 ± 0.005 | 0.014 ± 0.016 | -0.014 ± 0.018 | -0.012 ± 0.048 | -0.031 ± 0.04 | -0.034 ± 0.03 | -0.0005 ± 0.049 | 0.0105 ± 0.0092 | -0.0065 ± 0.00071 | 0.002 ± 0.045 | -0.081 ± 0.081 | -0.0345 ± 0.023 | -0.013 ± 0.1 |
| HDF3CGF:CCL2/MCP-1 | -0.032 ± 0.0085 | -0.0245 ± 0.0078 | -0.0205 ± 0.028 | -0.026 ± 0.034 | -0.008 ± 0.054 | -0.0025 ± 0.052 | 0.0075 ± 0.036 | 0 ± 0.033 | -0.077 ± 0.042 | 0.0235 ± 0.074 | -0.056 ± 0.055 | 0.011 ± 0.025 | 0.0285 ± 0.0021 | 0.019 ± 0.0028 | -0.044 ± 0.031 | -0.073 ± 0.027 | -0.172 ± 0.067 | -0.0305 ± 0.08 | -0.043 ± 0.027 | -0.0315 ± 0.052 |
| HDF3CGF:CD54/ICAM-1 | -0.009 ± 0.013 | -0.0085 ± 0.018 | 0.011 ± 0.023 | -0.013 ± 0.0099 | -0.0125 ± 0.012 | 0.004 | 0.004 ± 0.0099 | 0.0005 ± 0.016 | -0.0765 ± 0.00071 | -0.031 ± 0.0099 | -0.033 ± 0.011 | -0.0075 ± 0.015 | -0.0245 ± 0.005 | -0.0555 ± 0.012 | 0.0025 ± 0.018 | -0.019 ± 0.04 | -0.106 ± 0.091 | -0.0095 ± 0.019 | -0.0255 ± 0.0035 | -0.0285 ± 0.005 |
| HDF3CGF:CD106/VCAM-1 | -0.0155 ± 0.0092 | -0.0165 ± 0.0021 | -0.024 ± 0.0028 | -0.0175 ± 0.00071 | 0.001 ± 0.0085 | -0.001 ± 0.0071 | -0.016 ± 0.016 | -0.03 ± 0.04 | -0.213 ± 0.044 | -0.02 ± 0.034 | -0.0225 ± 0.022 | -0.039 ± 0.021 | -0.044 ± 0.027 | -0.131 ± 0.016 | -0.09 ± 0.0042 | -0.202 | -0.264 ± 0.044 | -0.023 ± 0.014 | 0.014 ± 0.035 | -0.062 ± 0.057 |
| HDF3CGF:CXCL8/IL-8 | -0.0015 ± 0.0092 | -0.003 ± 0.0057 | 0.0075 ± 0.0078 | -0.0055 ± 0.0035 | 0.01 ± 0.0028 | -0.0005 ± 0.0078 | 0.003 ± 0.0014 | 0.0065 ± 0.0092 | 0.013 ± 0.0028 | -0.0065 ± 0.0064 | -0.001 ± 0.0099 | -0.0135 ± 0.015 | 0.001 ± 0.011 | 0.0045 ± 0.0035 | 0.0015 ± 0.028 | -0.0025 ± 0.011 | 0.0115 ± 0.0064 | -0.007 ± 0.0028 | -0.0105 ± 0.0064 | -0.002 ± 0.011 |
| HDF3CGF:CXCL9/MIG | -0.0105 ± 0.0035 | -0.004 ± 0.0057 | -0.009 ± 0.018 | -0.0005 ± 0.005 | -0.005 ± 0.035 | 0.009 ± 0.0028 | 0.007 ± 0.018 | -0.0055 ± 0.015 | -0.0645 ± 0.005 | -0.04 ± 0.016 | -0.074 ± 0.02 | -0.011 ± 0.028 | -0.02 ± 0.014 | -0.016 ± 0.064 | -0.105 ± 0.011 | -0.283 ± 0.03 | -0.525 ± 0.14 | -0.0335 ± 0.037 | -0.0065 ± 0.0064 | 0.01 ± 0.04 |
| HDF3CGF:CXCL10/IP-10 | 0.0155 ± 0.00071 | 0.0165 ± 0.013 | 0.005 ± 0.0028 | -0.0105 ± 0.026 | -0.0165 ± 0.035 | 0 ± 0.0057 | -0.005 ± 0.0028 | 0.001 ± 0.0085 | -0.144 ± 0.0092 | -0.019 ± 0.024 | -0.061 ± 0.016 | 0.002 ± 0.013 | -0.0085 ± 0.00071 | -0.0025 ± 0.012 | -0.0435 ± 0.04 | -0.155 ± 0.013 | -0.418 ± 0.059 | -0.0075 ± 0.025 | -0.002 ± 0.023 | -0.0095 ± 0.0035 |
| HDF3CGF:CXCL11/I-TAC | -0.0135 ± 0.0035 | -0.015 ± 0.0099 | -0.03 | -0.026 | -0.035 ± 0.014 | -0.008 ± 0.018 | -0.005 ± 0.0085 | -0.002 ± 0.0042 | -0.062 ± 0.024 | 0.018 ± 0.013 | 0.0285 ± 0.018 | 0.002 ± 0.0057 | -0.0045 ± 0.019 | 0.002 ± 0.0099 | -0.0395 ± 0.053 | -0.139 ± 0.077 | -0.319 ± 0.13 | -0.039 ± 0.035 | 0.011 ± 0.0014 | -0.0275 ± 0.029 |
| HDF3CGF:Collagen I | -0.058 ± 0.021 | -0.0195 ± 0.053 | -0.0335 ± 0.039 | 0.0095 ± 0.077 | 0.052 ± 0.038 | -0.008 ± 0.059 | -0.011 ± 0.024 | 0.042 ± 0.021 | -0.0645 ± 0.03 | 0.0345 ± 0.005 | -0.0715 ± 0.036 | -0.029 ± 0.031 | 0.0015 ± 0.005 | -0.0095 ± 0.0092 | -0.021 ± 0.065 | -0.0405 ± 0.053 | -0.116 ± 0.0057 | -0.0205 ± 0.0078 | -0.0025 ± 0.0092 | 0.0475 ± 0.05 |
| HDF3CGF:Collagen III | 0.0005 ± 0.00071 | -0.0175 ± 0.005 | -0.0675 ± 0.037 | -0.022 ± 0.035 | -0.0165 ± 0.07 | -0.0085 ± 0.0064 | 0.0005 ± 0.018 | 0.0005 ± 0.0035 | -0.049 ± 0.05 | -0.0705 ± 0.043 | -0.168 ± 0.02 | -0.0055 ± 0.0064 | -0.015 ± 0.041 | -0.0705 ± 0.028 | -0.008 ± 0.092 | -0.087 ± 0.12 | -0.211 ± 0.12 | -0.055 ± 0.068 | -0.0105 ± 0.0092 | 0.0335 ± 0.03 |
| HDF3CGF:EGFR | -0.0055 ± 0.005 | -0.005 | 0.0195 ± 0.0092 | -0.0055 ± 0.005 | 0 ± 0.018 | 0.0135 ± 0.0078 | 0.032 ± 0.048 | 0.032 ± 0.075 | -0.162 ± 0.0014 | 0.0115 ± 0.057 | -0.037 ± 0.013 | -0.017 ± 0.014 | 0.0145 ± 0.026 | 0.0535 ± 0.005 | -0.008 ± 0.0085 | -0.0005 ± 0.025 | 0.013 ± 0.021 | -0.0285 ± 0.028 | -0.001 ± 0.072 | 0.0275 ± 0.053 |
| HDF3CGF:M-CSF | -0.0375 ± 0.03 | -0.038 ± 0.0085 | -0.029 ± 0.055 | -0.039 ± 0.0028 | -0.02 ± 0.025 | -0.0095 ± 0.005 | -0.01 ± 0.0085 | 0.0255 ± 0.036 | -0.0425 ± 0.015 | 0.0115 ± 0.025 | -0.028 ± 0.028 | -0.0345 ± 0.00071 | -0.0245 ± 0.013 | -0.0595 ± 0.035 | -0.036 ± 0.083 | -0.121 ± 0.098 | -0.261 ± 0.046 | -0.027 ± 0.067 | -0.035 ± 0.023 | -0.004 ± 0.0057 |
| HDF3CGF:MMP-1 | -0.0195 ± 0.016 | -0.015 ± 0.014 | -0.008 ± 0.045 | -0.0165 ± 0.018 | -0.005 ± 0.042 | -0.0115 ± 0.0078 | 0.0025 ± 0.0035 | 0.0015 ± 0.0064 | -0.004 ± 0.0057 | -0.008 ± 0.0099 | -0.012 ± 0.0042 | 0.0035 ± 0.016 | 0.011 | 0.008 ± 0.0085 | 0.0265 ± 0.0092 | 0.0845 ± 0.021 | 0.095 ± 0.0014 | -0.025 ± 0.0057 | -0.0075 ± 0.011 | 0.0035 ± 0.0035 |
| HDF3CGF:PAI-I | -0.013 ± 0.0042 | 0.0015 ± 0.023 | 0.0385 ± 0.04 | -0.0035 ± 0.0092 | 0.0105 ± 0.015 | -0.008 ± 0.017 | -0.017 ± 0.0071 | 0.0115 ± 0.037 | -0.011 ± 0.0057 | 0.037 ± 0.062 | 0.0765 ± 0.064 | -0.0825 ± 0.052 | -0.0995 ± 0.013 | -0.051 ± 0.054 | -0.0265 ± 0.033 | -0.0285 ± 0.013 | -0.036 ± 0.027 | -0.057 ± 0.086 | 0.008 ± 0.072 | -0.0255 ± 0.076 |
